Patent EP0452935B1, “Chiral 2-(phosphonomethoxy)propyl guanines as antiviral agents” (INSTITUTE OF ORGANIC CHEMISTRY AND BIOCHEMISTRY OF THE …, priority 1990, dated 1991)
pEC50: −log10 of the molar value. ≈ marks a conversion by molar mass, not a printed value.

How the values were obtained:
Type in all cases: cell-based
[1] = test system: herpes simplex virus Type 2 (HSV-2); assay: plaque reduction assay, HSV-2 in vero cells; conditions: Human alphaherpesvirus 2, G strain, 48 hour incubation
Description: (§1) The compounds were evaluated for antiviral activity in vitro by the standard plaque reduction assay. Experiments were conducted with vero cells (African Green Monkey Kidney cells) infected with herpes simplex virus Type 1 (HSV-1) [BW^s strain, C. D. Sibrack et al., Infect. Dis., 1982, 146, 673] and herpes simplex virus Type 2 (HSV-2) [G strain, obtained from American Tissue Culture Collection, Rockville, MD] and with MRC-5 cells (human embryonic lung (diploid) cells) infected with human cytomegalovirus (HCMV) [AD169 strain, obtained from American Tissue Culture Collection, Rockville, MD]. Briefly, confluent cell monolayers in 24-well plates were infected with 30-50 plaque-forming units of virus in 100 »l of phosphate-buffered saline. After a 1 hour adsorption period, residual inoculum was replaced with 1 mL of the appropriate dilution of the test compound which had been freshly prepared in Eagle's minimal essential medium (EMEM) containing 10% fetal bovine serum. After a 48 hour incubation period at 37°C in a 5% CO₂ atmosphere, cell monolayers were fixed and stained with Carbol fuchsin and plaques were counted. The antiviral potency of the compound was determined by IC₅₀, the inhibitory concentration necessary to reduce the number of plaques by 50% of those in the virus control cultures.

[2] = test system: herpes simplex virus Type 1 (HSV-1); assay: plaque reduction assay, HSV-1 in vero cells; conditions: Human alphaherpesvirus 1, BW^s strain, 48 hour incubation
Description: as §1

[3] = test system: human immunodeficiency virus (LAVBRU strain); assay: anti-HIV XTT assay in infected CEM-SS cells; conditions: for anti-HIV activity (in words): XTT assay (FIGS. 4, 6, 7); for pEC50: infected CEM-SS cells, XTT assay, day 7 post-infection, viable cells increased to 50% of uninfected control, NA = Not active at concentrations up to 500 µM, read-out: ED50 (the source's name); for SI: Selectivity Index: Ratio of TD50 to ED50, CEM-SS cells, 10080 min
Description: (§2) Compounds were evaluated for activity against human immunodeficiency virus (LAVBRU strain obtained from Luc Montagnier, Institut Pasteur, Paris, France) in CEM-SS cells (P. L. Nara et al., in AIDS Res. Human. Retroviruses, 1987, 3, 283-302) or in MT-4 cells (S. Harada, et al., in Science, 1985, 229, 563-566) using the XTT assay described by O. S. Weislow et al., in J. Natl. Cancer Instit., 1989, 81, 577-586. CEM-SS cells were obtained from Owen Weislow at the National Cancer Institute, and MT-4 cells were obtained from Doug Richman at the University of California at San Diego. Cells were exposed to HIV and cultured in microtiter plates in the presence of test compounds at concentrations of 0.0013, 0.0064, 0.032, 0.16, 0.8, 4, 20, 100, and 500 »M. On day 7 post-infection, the antiviral effect was measured using the XTT assay in which an optical density (OD) reading is obtained at each drug concentration. The optical density reading is proportional to the number of viable cells. Assays run in infected cells show the antiviral effect of the test compounds, where an increase in the number of viable cells (higher OD reading) reflects the protective, antiviral activity of the compound. Assays run in uninfected cells provide a measure of cellular toxicity. The antiviral effect is also expressed (see Table 2) as the concentration of compound which increases the number of viable cells in infected cultures to 50%, that of the untreated, uninfected control cultures (ED₅₀). The cellular toxicity is expressed as the concentration of compound which reduces the number of viable cells to 50%, that of the untreated control (TD₅₀). The selectivity index (SI) is the ratio of TD₅₀ to ED₅₀. The anti-HIV activity and cellular toxicity of the test compounds are plotted in FIGS. 1-7 as a function of optical density verus increasing log concentrations of the test compounds (XTT assay).

[4] = test system: human cytomegalovirus (HCMV); assay: plaque reduction assay, HCMV in MRC-5 cells; conditions: Human betaherpesvirus 5, MRC5, AD169 strain
Description: as §1

in vitro [5] = conditions: human, cem-ss cells
Description: as §2

in vitro [6] = conditions: human, mt-4 cells
Description: as §2, with “The antiviral effect is also expressed (see Table 2) as the concentration of compound which increases the number of viable cells in infected cultures to 50%, that of the untreated, uninfected control cultures (ED₅₀). The cellular toxicity is expressed as the concentration of compound which reduces the number of viable cells to 50%, that of the untreated control (TD₅₀). The selectivity index (SI) is the ratio of TD₅₀ to ED₅₀. The anti-HIV activity and cellular toxicity of the test compounds are plotted in FIGS. 1-7 as a function of optical density verus increasing log concentrations of the test compounds (XTT assay).” left out

[7] = test system: human immunodeficiency virus (LAVBRU strain); assay: anti-HIV XTT assay in infected MT-4 cells; conditions: MT4 cells, XTT assay (FIG. 2)
Description: as §2, with “The antiviral effect is also expressed (see Table 2) as the concentration of compound which increases the number of viable cells in infected cultures to 50%, that of the untreated, uninfected control cultures (ED₅₀). The cellular toxicity is expressed as the concentration of compound which reduces the number of viable cells to 50%, that of the untreated control (TD₅₀). The selectivity index (SI) is the ratio of TD₅₀ to ED₅₀. The anti-HIV activity and cellular toxicity of the test compounds are plotted in FIGS. 1-7 as a function of optical density verus increasing log concentrations of the test compounds (XTT assay).” left out

CEM-SS cells = assay: in vitro
Description: as §2

[8] = Human immunodeficiency virus 1, 168 h

Row | Compound | IC50 [1] [µg/mL] | IC50 [2] [µg/mL] | anti-HIV activity (in words) ([3]; CEM-SS cells) | pEC50 [3, 8] | SI [3] | IC50 [4] [µg/mL] | CC50 (in vitro [5]) [µM] | MNTC at 168 h (in vitro [6]) [µM] | MNTC (in vitro [5]) [µM] | MCC at 168 h (in vitro [6]) [nM] | anti-HIV effect (in words) [7] | cytotoxicity relative to (R)-2'-methyl-PMEG (CEM-SS cells) | CC50 (CEM-SS cells; human, cem-ss cells) [µM] | EC100 ([3]; Human immunodeficiency virus 1, 168 h, CEM-SS cells, XTT assay (FIGS. 3, 5), read-out: concentration giving complete protection from HIV) [µM]
1 | Nc1nc2c(ncn2C[C@H](CO)OCP(=O)(O)O)c(=O)[nH]1 [(R)-HPMPG, (R)-9-[3-hydroxy-2-(phosphonomethoxy)propyl]guanine] | 32 (≈ 100 µM) | 32 (≈ 100 µM) | clearly inactive | 3.30 | >1 | 0.5 (≈ 1.57 µM) | > 500 |  |  |  |  |  |  | 
2 | C[C@H](Cn1cnc2c(=O)[nH]c(N)nc21)OCP(=O)(O)O [(R)-2'-methyl-PMEG, (R)-9-[2-(phosphonomethoxy)propyl]guanine] | 25 (≈ 82.4 µM) |  | active | 6.00 |  | 5 (≈ 16.5 µM) | > 500 | < 100 | < 100 |  |  |  |  | 
3 | Nc1nc2c(ncn2C[C@@H](CO)OCP(=O)(O)O)c(=O)[nH]1 [(S)-HPMPG, (S)-9-[3-hydroxy-2-(phosphonomethoxy)propyl]guanine] | 31 (≈ 97.1 µM) | 8 (≈ 25.1 µM) | clearly inactive |  |  | 0.9 (≈ 2.82 µM) | 350 |  |  |  |  |  |  | 
4 | Nc1nc2c(ncn2CCOCP(=O)(O)O)c(=O)[nH]1 [PMEG, 9-[2-(phosphonomethoxy)ethyl]guanine] | 0.31 (≈ 1.07 µM) | 0.09 (≈ 0.311 µM) | some anti-HIV effect | 6.70 | 30 | < 0.1 |  |  |  | > 100 | no anti-HIV effect can be measured | approximately 30 fold | 15 | 
5 | C[C@@H](Cn1cnc2c(=O)[nH]c(N)nc21)OCP(=O)(O)O [(S)-2'-methyl-PMEG, (S)-9-[2-(phosphonomethoxy)propyl]guanine] | 25 (≈ 82.4 µM) |  | active | 4.92 | 25 | 5 (≈ 16.5 µM) | 300 |  | < 100 |  |  |  |  | 100
